Measurements as given in patent US5051499A, “Novel nucleoside-phospholipid conjugate” (Toyo Jozo Kabushiki Kaisha, priority 1986, dated 1991).

The molecules below were run on P-388 leukemic cells (assay: Antitumor activity against mouse leukemia P-388, increase in life span (ILS)). Details: P388, ip, 120 h, Table 2, i.p., once a day for 5 days, BDF1 mice.
Assay type: in vivo
Set-up: dose or concentration left out as unconfirmed
Procedure: Antitumor activity against mouse leukemia P-388 carcinoma is shown in the ensuring examples, according to the following list of specifications:
2. Animal: BDF1 mice, age 5 weeks, male, Charles River Inc., 5 mice in an experimental group at 7 control mice.
3. Tumor cells: P-388 leukemic cells; 1×10^6 /0.2 ml are inoculated intraperitoneally in BDF1 mice of the experimental group.
4. Preparation of samples and administration of drugs:
Samples are suspended in Tris-HCl saline solution by sonification. 0.1 ml/10g body weight is administered.
Administration: starting one day after inoculation of tumor cells, once a day for 5 days intraperiotoneally.
5. Increase in life span (ILS) is calculated by the following equation: [formula]
Average survival date in control group is 7.86 days (7.57-7.93 days).
CCCCCCCC/C=C\CCCCCCCCOCC(COP(=O)(O)OC[C@H]1O[C@@H](n2cc(F)c(N)nc2=O)[C@@H](O)[C@@H]1O)OCCCCCCCC/C=C\CCCCCCCC (stereo partly drawn) [oleyl oleeyl AraFC] was tested, and the ILS was 148%.
CCCCCCCCCCCCCCCCCCOCC(COP(=O)(O)OCC1=C[C@@H](n2cnc3c(N)ncnc32)[C@H](O)[C@@H]1O)OCCCCCCCCCCCCCCCCCC (stereo partly drawn) [stearyl stearyl NepA] was tested, and the ILS was 31%.
CCCCCCCCCCCCCCCCOCC(COP(=O)(O)OCC1=C[C@@H](n2cnc3c(N)ncnc32)[C@H](O)[C@@H]1O)OCCCCCCCCCCCCCCCC (stereo partly drawn) [cetyl cetyl NepA] gave an ILS of 34.9%.
In the case of CCCCCCCCCCCCCCCCOCC(COP(=O)(O)OC[C@H]1O[C@@H](n2cc(F)c(=O)[nH]c2=O)[C@H](O)[C@@H]1O)OCCCCCCCCCCCCCCCC (stereo partly drawn) [cetyl cetyl FUR], the ILS is reported as 127%.
With CCCCCCCCCCCCCCCCOCC(COP(=O)(O)OC[C@H]1O[C@@H](n2cc(F)c(N)nc2=O)[C@@H](O)[C@@H]1O)OCCCCCCCCCCCCCCCC (stereo partly drawn) [cetyl cetyl AraFC] the ILS was 152%.
Molecule CCCCCCCCCCCCCCCCCCOCC(COP(=O)(O)OC[C@H]1O[C@@H](n2cc(F)c(N)nc2=O)[C@@H](O)[C@@H]1O)OCCCCCCCCCCCCCCCCCC (stereo partly drawn) [stearyl stearyl AraFC] has an ILS of 61%.
CCCCCCCCCCCCCCCCCCOCC(COP(=O)(O)OC[C@H]1O[C@@H](n2cc(F)c(=O)[nH]c2=O)[C@H](O)[C@@H]1O)OCCCCCCCCCCCCCCCCCC (stereo partly drawn) [stearyl stearyl FUR] was tested, and the ILS was 31%.
For CCCCCCCC/C=C\CCCCCCCCOCC(COP(=O)(O)OC[C@H]1O[C@@H](n2cc(F)c(=O)[nH]c2=O)[C@H](O)[C@@H]1O)OCCCCCCCC/C=C\CCCCCCCC (stereo partly drawn) [oleyl oleyl FUR], the ILS was 76%.
In the case of CCCCCCCC/C=C\CCCCCCCCOCC(COP(=O)(O)OCC1=C[C@@H](n2cnc3c(N)ncnc32)[C@H](O)[C@@H]1O)OCCCCCCCC/C=C\CCCCCCCC (stereo partly drawn) [oleyl oleyl NepA], the ILS is reported as 26%.
